Experimental data published in ChEMBL document CHEMBL1150339, “Synthesis and anti-breast cancer activities of substituted quinolines” (Bioorg Med Chem Lett, 2008).
pIC50: −log10 of the molar value. Active and inactive are the calls of the source. The rule behind the calls is not given here.

The compounds below were run on T47D (assay: Cell viability of human T47D cells at 10 uM by trypan blue exclusion assay).
Format: functional, cell-based

With `COc1cc(N)c2nccc(C)c2c1Oc1cccc(C(F)(F)F)c1` the Activity was “inactive”.

The compounds below were run on T47D (assay: Cell viability of human T47D cells by trypan blue exclusion assay).
Format: functional, cell-based

Going from `COc1cc(NCCCN)c2nccc(C)c2c1Oc1cccc(C(F)(F)F)c1` to `COc1cc(NCCC(=N)N)c2nccc(C)c2c1Oc1cccc(C(F)(F)F)c1`, the pIC50 falls from 6.92 to 6.28 (0.64 log units).

Going from `CCOC(=N)CCNc1cc(OC)c(Oc2cccc(C(F)(F)F)c2)c2c(C)ccnc12` to `COc1cc(NCCC#N)c2nccc(C)c2c1Oc1cccc(C(F)(F)F)c1`, the pIC50 rises from 5.70 to 6.42 (0.72 log units).

Compared with `COc1cc(NCc2ccco2)c2nccc(C)c2c1Oc1cccc(C(F)(F)F)c1`, `COc1cc(NCc2cccs2)c2nccc(C)c2c1Oc1cccc(C(F)(F)F)c1` is 2.38 log units lower in pIC50: 7.81 for the first, 5.43 for the second. The first is the more potent here.

For `COc1cc(NCc2cnc[nH]2)c2nccc(C)c2c1Oc1cccc(C(F)(F)F)c1`, the pIC50 was 5.89.
